Test results as given in patent US10472341B2, “Bicyclic tetrahydrothiazepine derivatives useful for the treatment of neoplastic and/or infectious diseases” (APEIRON BIOLOGICS AG, priority 2015, dated 2019).
Counter-ions that a name gives are not always drawn.

What was measured:
[1] = system: TCR-mediated activation of CD4 and CD8 cells; assay: Anti-CD3 PD model in mice: CD69 on splenic T-cells, plasma cytokines; format: in vivo, mouse; settings: for CD4+ / CD8+ / CD69+ / CD69+ in CD4+ / CD69+ in CD8+: spleen flowcytometry; for CD4+ / CD8+ / CD69+ / CD69+ in CD4+ / CD69+ in CD8+ / IFN-γ / IL-2 / IL-6 / IL-10 / TNF-α: t=4.0 h; for IFN-γ / IL-2 / IL-6 / IL-10 / TNF-α: terminal plasma
Description: Detection of antigen-specific T cell activation and proliferation in vivo is technically challenging since it requires the development and validation of research reagents to detect low-frequency T cells specific for a cognate antigen and also the establishment of specific measurement procedure for following cellular activation and/or proliferation in blood or secondary lymphoid organs. As a surrogate model for the determination of polyclonal T-cell activation in mice, a pharmacological system was designed and employed where adult […] mice were injected with anti-CD3 antibody to elicit TCR triggering and responses of a broad population of peripheral T-cells. To quantitatively determine T-cell responses, systemic IL-2, TNF-alpha and IFN-gamma levels were measured in blood serum as well as the expression of the early activation marker CD69 on splenic CD4 or CD8 T-cells […] after treatment.
It was investigated whether the oral application of compound affected the low-level of activation of a major subset of splenic T-cells by injection of anti-CD3 antibody as exemplified by increased serum levels of IL-2, IFN-gamma and TNF-alpha vis-à-vis untreated mice as well as an increase of CD69-expressing splenic T-cells from 2-10% to 15-20%.
[…] Compound example 1 was dosed twice orally as suspension (0.5% methylcellulose in water) at t=−1.0 h and t=1.0 h. • 3. Mice were terminated at t=4.0 h and their spleens and plasma harvested for flow cytometry and cytokine analysis respectively. • 4. Cytokine concentrations in terminal plasma samples were determined with MSD kits according to manufacturer's instructions.

CD8 T cells = assay: CD8 T cell viability (number of living cells) with or without M21 cells; format: cell-based, human
Description: Isolated PBMCs, NK cells or CD8 positive cells were plated in Xvivo medium at 1.5*10^5 cells per in 96 well culture plates in the presence of 0.3*10^4 tumor cells where indicated. Cytokine secretion was determined by ELISA, immune cell activation (using Beckman-Coulter Abs CD25-PC5, CD69-PC7), cell viability and numbers by flow cytometry (Beckman-Coulter FC500 or Gallios) using 7-AAD exclusion as criterion for living cells. CD8-positive immune cells were isolated from PBMCs and were incubated with and without compound example 67, either alone or in co-culture with M21 melanoma cells.

For `N[C@H]1CS(=O)(=O)c2cc(F)c(C(=O)NC3CC3(F)F)cc2N(Cc2ccc(Cl)cc2)C1=O` (stereo partly drawn) [Example 1, (3R)-3-amino-5-[(4-chlorophenyl)methyl]-N-(2,2-difluorocyclopropyl)-8-fluoro-1,1,4-trioxo-2,3,4,5-tetrahydro-1λ^6,5-benzothiazepine-7-carboxamide hydrochloride], the “TCR-mediated activation of CD4 and CD8 cells in vivo” value ([1]; mice, anti-CD3 i.p., compound oral, five hours) was “is able to substantially enhance TCR-mediated activation of CD4 and CD8 cells in vivo”, the “CD4+” value ([1]; 25 mg/kg dosed twice orally) was 22.95% and the “CD8+” value ([1]; 25 mg/kg dosed twice orally) was 16.33%. For the same molecule, the “CD69+” value ([1]; 25 mg/kg dosed twice orally) was 12.65%, the “CD69+ in CD4+” value ([1]; 25 mg/kg dosed twice orally) was 26.75% and the “CD69+ in CD8+” value ([1]; 25 mg/kg dosed twice orally) was 32.40%. For the same molecule, the “CD4+” value ([1]; 50 mg/kg dosed twice orally) was 22.86%, the “CD8+” value ([1]; 50 mg/kg dosed twice orally) was 16.42% and the “CD69+” value ([1]; 50 mg/kg dosed twice orally) was 17.06%. For the same molecule, the “CD69+ in CD4+” value ([1]; 50 mg/kg dosed twice orally) was 32.14%, the “CD69+ in CD8+” value ([1]; 50 mg/kg dosed twice orally) was 46.44% and the “CD4+” value ([1]; 100 mg/kg dosed twice orally) was 23.18%. For the same molecule, the “CD8+” value ([1]; 100 mg/kg dosed twice orally) was 16.70%, the “CD69+” value ([1]; 100 mg/kg dosed twice orally) was 28.58% and the “CD69+ in CD4+” value ([1]; 100 mg/kg dosed twice orally) was 47.50%. For the same molecule, the “CD69+ in CD8+” value ([1]; 100 mg/kg dosed twice orally) was 63.96%, the IFN-γ ([1]; 25 mg/kg dosed twice orally) was 5.26 pg/mL and the IL-2 ([1]; 25 mg/kg dosed twice orally) was 391.33 pg/mL. It also gave an IL-6 ([1]; 25 mg/kg dosed twice orally) of 461.65 pg/mL, an IL-10 ([1]; 25 mg/kg dosed twice orally) of 39.88 pg/mL and a TNF-α ([1]; 25 mg/kg dosed twice orally) of 46.78 pg/mL. The IFN-γ ([1]; 50 mg/kg dosed twice orally) was 12.99 pg/mL, the IL-2 ([1]; 50 mg/kg dosed twice orally) was 849.50 pg/mL and the IL-6 ([1]; 50 mg/kg dosed twice orally) was 1186.80 pg/mL. For the same molecule, the IL-10 ([1]; 50 mg/kg dosed twice orally) was 50.88 pg/mL, the TNF-α ([1]; 50 mg/kg dosed twice orally) was 97.78 pg/mL and the IFN-γ ([1]; 100 mg/kg dosed twice orally) was 50.77 pg/mL. The IL-2 ([1]; 100 mg/kg dosed twice orally) was 1413.82 pg/mL, the IL-6 ([1]; 100 mg/kg dosed twice orally) was 2185.05 pg/mL and the IL-10 ([1]; 100 mg/kg dosed twice orally) was 68.38 pg/mL. For the same molecule, the TNF-α ([1]; 100 mg/kg dosed twice orally) was 170.92 pg/mL.
In the case of `CCCCNC(=O)c1ccc2c(c1)N(Cc1ccc(OC(F)(F)F)cc1)C(=O)[C@@H](N)CS2(=O)=O.Cl` [Example 67, (3R)-3-amino-N-butyl-1,1,4-trioxo-5-{[4-(trifluoromethoxy)phenyl]methyl}-2,3,4,5-tetrahydro-1λ^6,5-benzothiazepine-7-carboxamide hydrochloride], the “CD8 T cell viability [Number of Living Cells] average” value (shortened to “CD8 T cell viability”) (CD8 T cells; 0.03 μM, CD8 cells & M21) is reported as 22933.00 Number of Living Cells, the “CD8 T cell viability” value (CD8 T cells; 0.03 μM, CD8 only) is reported as 23523.00 Number of Living Cells and the “CD8 T cell viability” value (CD8 T cells; 0.1 μM, CD8 cells & M21) is reported as 23942.33 Number of Living Cells. The “CD8 T cell viability” value (CD8 T cells; 0.1 μM, CD8 only) was 24094.33 Number of Living Cells, the “CD8 T cell viability” value (CD8 T cells; 0.3 μM, CD8 cells & M21) was 23944.67 Number of Living Cells and the “CD8 T cell viability” value (CD8 T cells; 0.3 μM, CD8 only) was 23739.00 Number of Living Cells. The “CD8 T cell viability” value (CD8 T cells; 1 μM, CD8 cells & M21) was 24569.67 Number of Living Cells, the “CD8 T cell viability” value (CD8 T cells; 1 μM, CD8 only) was 23066.67 Number of Living Cells and the “CD8 T cell viability” value (CD8 T cells; 3 μM, CD8 cells & M21) was 24633.67 Number of Living Cells. The “CD8 T cell viability” value (CD8 T cells; 3 μM, CD8 only) was 23975.33 Number of Living Cells, the “CD8 T cell viability” value (CD8 T cells; 10 μM, CD8 cells & M21) was 24006.33 Number of Living Cells and the “CD8 T cell viability” value (CD8 T cells; 10 μM, CD8 only) was 25522.67 Number of Living Cells. For the same molecule, the “number of CD8 T cells; number of tumor cells in the absence of CD8 T cells” value (CD8 T cells; CD8 / M21 cultures) was “neither the number of CD8 T cells nor the number of tumor cells in the absence of CD8 T cells was substantially modulated”.
